US8802597B2, “Herbicidal pyrimidines” (E I du Pont de Nemours and Company, priority 2003, dated 2014)
Read-outs that look alike come from different tables or passages of the source.

Assays:
Assay in all cases: Test C pre/postemergence
Assay type in all cases: in vivo
[1] = test system: cocklebur (Xanthium strumarium); settings: Xanthium strumarium; for pest or weed control at 62 g/ha: 62 g ai/ha; for pest or weed control at 125 g/ha: 125 g ai/ha; for pest or weed control at 250 g/ha: 250 g ai/ha; for pest or weed control at 500 g/ha: 500 g ai/ha
Method in brief: (§1)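 We sprayed seeded pots preemergence and 2–18 cm seedlings postemergence with test chemicals in a non-phytotoxic solvent mixture including surfactant. Greenhouse plants were visually compared with untreated controls at 12 to 14 days and scored 0 (no effect) to 100 (complete control).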

[2] = test system: crabgrass (Digitaria sanguinalis); settings: Digitaria sanguinalis; for pest or weed control at 62 g/ha: 62 g ai/ha; for pest or weed control at 125 g/ha: 125 g ai/ha; for pest or weed control at 250 g/ha: 250 g ai/ha; for pest or weed control at 500 g/ha: 500 g ai/ha
Method in brief: as §1

[3] = test system: goosegrass (Eleusine indica); settings: Eleusine indica; for pest or weed control at 62 g/ha: 62 g ai/ha; for pest or weed control at 125 g/ha: 125 g ai/ha; for pest or weed control at 250 g/ha: 250 g ai/ha; for pest or weed control at 500 g/ha: 500 g ai/ha
Method in brief: as §1

[4] = test system: eastern black nightshade (Solanum ptycanthum); settings: Solanum, pre-emergence, Preemergence, read-out: Plant response rating, Nightshade
Method in brief: as §1

[5] = test system: velvetleaf (Abutilon theophrasti); settings: Abutilon theophrasti; for pest or weed control at 62 g/ha: 62 g ai/ha; for pest or weed control at 125 g/ha: 125 g ai/ha; for pest or weed control at 250 g/ha: 250 g ai/ha; for pest or weed control at 500 g/ha: 500 g ai/ha
Method in brief: as §1

[6] = test system: lambsquarters (Chenopodium album); settings: Chenopodium album; for pest or weed control at 62 g/ha: 62 g ai/ha; for pest or weed control at 125 g/ha: 125 g ai/ha; for pest or weed control at 250 g/ha: 250 g ai/ha; for pest or weed control at 500 g/ha: 500 g ai/ha
Method in brief: as §1

[7] = test system: bermudagrass (Cynodon dactylon); settings: Cynodon dactylon; for pest or weed control at 62 g/ha: 62 g ai/ha; for pest or weed control at 125 g/ha: 125 g ai/ha; for pest or weed control at 125 g/ha / pest or weed control at 250 g/ha / pest or weed control at 500 g/ha: scale 0 to 100; for pest or weed control at 250 g/ha: 250 g ai/ha; for pest or weed control at 500 g/ha: 500 g ai/ha
Method in brief: as §1

corn (Zea mays) = settings: Zea mays; for Corn plant response rating (crop injury, 0 = no effect, 100 = complete kill) at 62 g/ha: 62 g ai/ha; for Corn plant response rating (crop injury, 0 = no effect, 100 = complete kill) at 125 g/ha: 125 g ai/ha; for Corn plant response rating (crop injury, 0 = no effect, 100 = complete kill) at 250 g/ha: 250 g ai/ha; for Corn plant response rating (crop injury, 0 = no effect, 100 = complete kill) at 500 g/ha: 500 g ai/ha
Method in brief: as §1

[8] = post-emergence, Postemergence, scale 0 to 100 (0 no effect, 100 complete control), read-out: Cocklebur plant response rating
[9] = post-emergence, Postemergence, scale 0 to 100, read-out: Plant response rating, Cocklebur
[10] = pre-emergence, Preemergence, scale 0 to 100, read-out: Plant response rating, Cocklebur
[11] = post-emergence, Postemergence, scale 0 to 100 (0 no effect, 100 complete control), read-out: Crabgrass plant response rating
[12] = post-emergence, Postemergence, scale 0 to 100, read-out: Plant response rating, Crabgrass
[13] = pre-emergence, Preemergence, scale 0 to 100, read-out: Plant response rating, Crabgrass
[14] = post-emergence, Postemergence, scale 0 to 100 (0 no effect, 100 complete control), read-out: Goosegrass plant response rating
[15] = post-emergence, Postemergence, scale 0 to 100, read-out: Plant response rating, Goosegrass
[16] = pre-emergence, Preemergence, scale 0 to 100, read-out: Plant response rating, Goosegrass
[17] = post-emergence, Postemergence, scale 0 to 100 (0 no effect, 100 complete control), read-out: Velvetleaf plant response rating
[18] = post-emergence, Postemergence, scale 0 to 100, read-out: Plant response rating, Velvetleaf
[19] = pre-emergence, Preemergence, scale 0 to 100, read-out: Plant response rating, Velvetleaf
[20] = post-emergence, Postemergence, scale 0 to 100 (0 no effect, 100 complete control), read-out: Lambsquarters plant response rating
[21] = post-emergence, Postemergence, scale 0 to 100, read-out: Plant response rating, Lambsquarters
[22] = pre-emergence, Preemergence, scale 0 to 100, read-out: Plant response rating, Lambsquarters
[23] = post-emergence, Postemergence, read-out: Plant response rating, Bermudagrass
[24] = pre-emergence, Preemergence, read-out: Plant response rating, Bermudagrass
[25] = post-emergence, Postemergence, scale 0 to 100 (0 no effect, 100 complete control), read-out: Corn plant response rating
[26] = post-emergence, Postemergence, scale 0 to 100
[27] = pre-emergence, Preemergence, scale 0 to 100

CNc1nc(C2CC2)nc(C(=O)OC)c1Br [Compound 5]
pest or weed control at 62 g/ha [1, 8]: 80%
pest or weed control at 125 g/ha [1, 8]: 95%
pest or weed control at 250 g/ha [1, 9]: 100%
pest or weed control at 500 g/ha [1, 9]: 100%
pest or weed control at 62 g/ha ([1]; pre-emergence, Preemergence, scale 0 to 100, 0 no effect, 100 complete control, read-out: Plant response rating, Cocklebur): 10%
pest or weed control at 125 g/ha [1, 10]: 90%
pest or weed control at 250 g/ha [1, 10]: 100%
pest or weed control at 500 g/ha [1, 10]: 100%
pest or weed control at 62 g/ha [2, 11]: 40%
pest or weed control at 125 g/ha [2, 11]: 50%
pest or weed control at 250 g/ha [2, 12]: 70%
pest or weed control at 500 g/ha [2, 12]: 80%
pest or weed control at 62 g/ha ([2]; pre-emergence, Preemergence, scale 0 to 100, 0 no effect, 100 complete control, read-out: Plant response rating, Crabgrass): 0%
pest or weed control at 125 g/ha [2, 13]: 0%
pest or weed control at 250 g/ha [2, 13]: 20%
pest or weed control at 500 g/ha [2, 13]: 60%
pest or weed control at 62 g/ha [3, 14]: 0%
pest or weed control at 125 g/ha [3, 14]: 5%
pest or weed control at 250 g/ha [3, 15]: 40%
pest or weed control at 500 g/ha [3, 15]: 50%
pest or weed control at 62 g/ha ([3]; pre-emergence, Preemergence, scale 0 to 100, 0 no effect, 100 complete control, read-out: Plant response rating, Goosegrass): 0%
pest or weed control at 125 g/ha [3, 16]: 0%
pest or weed control at 250 g/ha [3, 16]: 0%
pest or weed control at 500 g/ha [3, 16]: 40%
pest or weed control at 62 g/ha ([4]; 62 g ai/ha, scale 0 to 100, 0 no effect, 100 complete control): 100%
pest or weed control at 125 g/ha ([4]; 125 g ai/ha, scale 0 to 100): 100%
pest or weed control at 250 g/ha ([4]; 250 g ai/ha, scale 0 to 100): 100%
pest or weed control at 500 g/ha ([4]; 500 g ai/ha, scale 0 to 100): 100%
pest or weed control at 62 g/ha [5, 17]: 55%
pest or weed control at 125 g/ha [5, 17]: 90%
pest or weed control at 250 g/ha [5, 18]: 90%
pest or weed control at 500 g/ha [5, 18]: 95%
pest or weed control at 62 g/ha ([5]; pre-emergence, Preemergence, scale 0 to 100, 0 no effect, 100 complete control, read-out: Plant response rating, Velvetleaf): 85%
pest or weed control at 125 g/ha [5, 19]: 85%
pest or weed control at 250 g/ha [5, 19]: 90%
pest or weed control at 500 g/ha [5, 19]: 90%
pest or weed control at 62 g/ha [6, 20]: 95%
pest or weed control at 125 g/ha [6, 20]: 100%
pest or weed control at 250 g/ha [6, 21]: 100%
pest or weed control at 500 g/ha [6, 21]: 100%
pest or weed control at 62 g/ha ([6]; pre-emergence, Preemergence, scale 0 to 100, 0 no effect, 100 complete control, read-out: Plant response rating, Lambsquarters): 95%
pest or weed control at 125 g/ha [6, 22]: 95%
pest or weed control at 250 g/ha [6, 22]: 100%
pest or weed control at 500 g/ha [6, 22]: 100%
pest or weed control at 62 g/ha ([7]; post-emergence, Postemergence, scale 0 to 100 (0 no effect, 100 complete control), read-out: Bermudagrass plant response rating): 5%
pest or weed control at 125 g/ha [7, 23]: 50%
pest or weed control at 250 g/ha [7, 23]: 70%
pest or weed control at 500 g/ha [7, 23]: 80%
pest or weed control at 62 g/ha ([7]; pre-emergence, Preemergence, scale 0 to 100, 0 no effect, 100 complete control, read-out: Plant response rating, Bermudagrass): 0%
pest or weed control at 125 g/ha [7, 24]: 0%
pest or weed control at 250 g/ha [7, 24]: 30%
pest or weed control at 500 g/ha [7, 24]: 70%
Corn plant response rating (crop injury, 0 = no effect, 100 = complete kill) at 62 g/ha (corn (Zea mays); [25]): 10%
Corn plant response rating (crop injury, 0 = no effect, 100 = complete kill) at 125 g/ha (corn (Zea mays); [25]): 40%
Corn plant response rating (crop injury, 0 = no effect, 100 = complete kill) at 250 g/ha (corn (Zea mays); [26]): 40%
Corn plant response rating (crop injury, 0 = no effect, 100 = complete kill) at 500 g/ha (corn (Zea mays); [26]): 45%
Corn plant response rating (crop injury, 0 = no effect, 100 = complete kill) at 62 g/ha (corn (Zea mays); pre-emergence, Preemergence, scale 0 to 100, 0 no effect, 100 complete control, read-out: Plant response rating, Corn): 5%
Corn plant response rating (crop injury, 0 = no effect, 100 = complete kill) at 125 g/ha (corn (Zea mays); pre-emergence, Preemergence, scale 0 to 100, read-out: Plant response rating, Corn): 5%
Corn plant response rating (crop injury, 0 = no effect, 100 = complete kill) at 250 g/ha (corn (Zea mays); [27]): 20%
Corn plant response rating (crop injury, 0 = no effect, 100 = complete kill) at 500 g/ha (corn (Zea mays); [27]): 50%
